Consider 1 compound from patent US7557109B2, “Treatment for attention-deficit hyperactivity disorder” (priority 2001, dated 2009).

The structures appear in SMILES notation.

Series [1] concerns coloboma (Cm) mutant mice. In kind it is in vivo. An excerpt:
Heterozygote coloboma mice were originally purchased from The Jackson Laboratory (Bar Harbor, Me.) and were bred and maintained in our colony. In the current study, 20 mutant mice and 25 wild-type littermates, all aged 8 to 10 weeks, were used. Animals were divided into 4 groups: mutant/drug-treatment (n=11), mutant/vehicle-control (n=9), wild-type/drug-treatment (n=13), wild-type/vehicle-control (n=12). Age and gender were balanced among groups. All animals were housed as littermates (2-4 mice per cage) and were maintained on ad libitum food and water with a 12 hr light/dark cycle.
Open-field testing was performed under normal lighting conditions. Mice were brought into the experimental room and allowed at least 1 hr of acclimatization. Thirty minutes prior to testing, animals received an ip. injection of either d-amphetamine (4 mg/kg), eltoprazine (0.5 mg/kg) or saline. The mice were then placed in the activity monitor arenas (27×27×20 cm, Med Associates). Four animals of matching genotype and treatment were tested at one time. Each testing session lasted 40 minutes, after which animals were returned to their home cages. An automated infrared beam array system measured locomotor activity (total distance traveled) and number of center entries (zone crossings).

The test system of series [2] is DA and 5-HT release in dorsal striatum. In words: In vivo microdialysis of DA and 5-HT release in dorsal striatum, wild-type mice. To be noted: 0.1 mg/kg i.p. From the text:
Wild-type and 5-HT1B knock out mice were implanted with microdialysis probes according to the methods of DeGroote et al., incorporated herein by reference, with the following modifications. (DeGroote et al., Eur. J. Pharmacol., 439:93-100, 2002). The dialysis probe was placed in the dorsal striatum, at coordinates AP +0.80, ML −1.7 mm from bregma, DV −4.0 mm from the dura, according to the stereotaxic atlas of the mouse brain (Franklin and Paxinos, 1997), and with the toothbar set at 0 mm. Microdialysis experiments were begun 16-20 hours after surgery, using previously described methods, which are incorporated herein by reference (DeGroote et al., 2002). After the start of the dialysis probe perfusion, mice were left undisturbed for three hours. Mice were tested in their home cage during the light period. Samples were collected every 20 minutes in vials containing 7.5 μl acetic acid and stored at −80° C. until HPLC analysis.
Release of DA and 5-HT was measured after peripheral administration of eltoprazine or intrastriatal administration of the selective 5-HT1B receptor agonist CP 93129 dihydrochloride (1,4-Dihydro-3-(1,2,3,6-tetrahydro-4-pyridinyl)-5H-pyrrolo[3,2-b]pyridin-5-one, obtained from Tocris, UK.) Drugs were dissolved in distilled water and further diluted in Ringer solution to the final concentration on the day of the experiment. 5-HT and DA were analyzed by HPLC with electrochemical detection. Samples (25 μl) were injected onto an Inertsil ODS-3 column (3 μM, 2.1×100 mm, Aurora Borealis, The Netherlands) using a Gilson pump and autosampler (Separations, The Netherlands). Separation was performed at 40° C. with the electrochemical detector (Intro, ANTEC Leyden, The Netherlands) set at a potential of 600 mV against an Ag/AgCl reference electrode. The signal was analyzed using Gynkotek software. The mobile phase consisted of 5 g/l (NH4)2SO4, 150 mg/l heptane sulphonic acid sodium salt, 0.5 g/l EDTA, 5% methanol, 30 μl/l triethylamine, 30 μl/l acetic acid, pH 4.6. Flow rate was 0.3 ml/min. The detection limit for 5-HT was 0.5 fmol/25 μl sample (signal to noise ratio 2).
Values for the first four consecutive microdialysis samples were averaged to calculate the basal levels of extracellular 5-HT and DA, uncorrected for probe recovery. Student's t-tests were used to compare basal 5-HT and DA values between the two genotypes. Effects of drug treatment were analyzed by a repeated multivariate analysis of variance (ANOVA) with time as ‘within’ and treatment (or dose) and genotype as ‘between’ factors.

Turning to `c1cc2c(c(N3CCNCC3)c1)OCCO2` [eltoprazine, 1-(2,3-dihydro-1,4-benzodioxanyl-5-yl) piperazine], the “reduction of total ambulatory distance from that of saline-treated Cm mutants” value in series [1] (0.5 mg/kg i.p.) is given as “more than 50%”. In series [1] (0.5 mg/kg i.p. (FIG. 5B)), the “number of zone crossings” value was “decreased the number of zone crossings in Cm mutants to within the range of saline-treated wild-type mice”. For the same compound, in series [1] (0.5 mg/kg i.p. (FIG. 6A, 6B)), the “exploratory preference (center vs periphery of arena)” value is “no effect on exploratory preference”. Further, the rearing behavior result in series [1] (0.5 mg/kg i.p. vs saline (FIG. 6C, 6D)) is reported as “same pattern of rearing behavior”. In series [1] (0.5 mg/kg i.p., 40 min session, saline 17725±6636 cm (FIG. 5A)), this compound yielded a total ambulatory distance of 8641±1811. The sedative effect result in series [1] (0.5 mg/kg i.p., open field) is given as “no sedative effect”. Also, in series [2], the “time after administration to decrease of DA and 5-HT release” value is no more than 20 min; the “time striatal release of DA and 5-HT remained below basal levels after administration” value was “at least 100 minutes”. Moreover, in series [2] (awake mice), the “basal release of 5-HT” value is on record as “decreased basal release” and the “basal release of DA” value is “decreased basal release”.
